Assay [1] deals with MAPK p38 phosphorylation. Nature of the assay: MAPK p38 Activation Assay (western blot), Panc-1. The class given is cell-based, human. The settings on record: at 10 μM, Panc-1 pancreatic cancer cell line; starred symbols = activation. The protocol:
Protocol for MAPK p38 Activation Assay
This assay is referred to as the “MAPK p38 Activation Assay” throughout this application.
Cell lines: Human tumor-derived pancreatic cancer cell line Panc-1 (expressing KRas G12D mutant) was purchased from American Type Culture Collection and grown in complete DMEM-High Glucose medium, supplemented with penicillin (100 U/mL), streptomycin (100 μg/mL), and 10% heat-inactivated FBS at 37° C. in a humidified incubator with 5% CO2.
Method 1: Cells were plated at 350000 cells/well density in a 12-well plate, allowed 3 hours to adhere to the plate, then starved in the appropriate medium in the presence of 0.5% FBS overnight. The small molecules to be tested were added to the cells in the final concentration of 10 μM in the presence of 0.3% DMSO for 6 hours incubation at 37° C. For IC50 value determination, serial dilutions of compounds were added to cells under the same conditions. Next, cells were stimulated with 1.5 ng/ml EGF for 15 minutes then cells were lysed with lysis buffer containing 1% Triton X-100, EDTA, and Halt™ Protease & Phosphatase Inhibitor Cocktail (Thermo Scientific). Protein concentration was assessed by BCA protein assay (Thermo Scientific). Phosphorylation level of MAPK p38 was determined by western blot.
Method 2: Cells were plated at 350000 cells/well density in a 12-well plate in 10% FBS. The next day small molecules to be tested were added to the cells in the final concentration of 10 μM in the presence of 0.3% DMSO for 6 hours incubation at 37° C. For IC50 value determination, serial dilutions of compounds were added to cells under the same conditions. Next, cells were lysed with lysis buffer containing 1% Triton X-100, EDTA, and Halt™ Protease & Phosphatase Inhibitor Cocktail (Thermo Scientific). Protein concentration was assessed by BCA protein assay (Thermo Scientific). Phosphorylation level of MAPK p38 was determined by western blot.
Western blot protocol: Equal amounts of protein (15-50 μg) were separated by SDS-PAGE and transferred to nitrocellulose membranes (Invitrogen by Thermo Fisher Scientific). The membrane was stained with Ponceau S Stain (Boston BioProducts) to verify uniform protein loading. Membranes were blocked with 10% milk and phosphorylation levels of MAPK p38 were assessed by incubating overnight at 4° C. with the following antibody: Phospho-p38 MAPK (Thr180/Tyr182), from Cell Signaling Technology. Then the membranes were incubated with HRP-conjugated secondary antibody (Jackson Immunoresearch, West Grove, PA). Bands were incubated in Amersham ECL Prime Western Blotting Detection Reagent (GE Healthcare) and visualized using the ChemiDoc MP imaging system (Bio-Rad).

The test system of assay [2] is MiaPaca-2 (expressing KRAS G12C mutant). Nature of the assay: Proliferation Assay (Cell Viability Assay). The class given is cell-based. The settings on record: Homo sapiens, MIA PaCa-2. The gist of the method: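 MiaPaca-2 cells (KRAS G12C) were grown in DMEM-high glucose with 10% FBS, seeded at 2000–5000 cells/well and cultured overnight. Compounds were added at 10 μM final, or as serial dilutions for IC50, in 0.3% DMSO/10% FBS for 2–4 days at 37 °C, 5% CO2. Viability was measured with CellTiter 96 Aqueous One and % inhibition calculated.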

The mark [3] stands for this setting: read-out: Proliferation in MiaPaca-2: IC50.

Read-outs that look alike come from different tables or passages of the source. A value given as a limit tells only on which side of the number the result lay.

As for `COCCNc1nc(-c2nccn2C)nn2cc(-c3cccc(OC)c3Cl)c(C)c12` [Compound 16, 6-(2-Chloro-3-methoxyphenyl)-N-(2-methoxyethyl)-5-methyl-2-(1-methyl-1H-imidazol-2-yl)pyrrolo[2,1-f][1,2,4]triazin-4-amine], the “% inh of MAPK p38 in Panc-1” value in assay [1] is given as “H* (H* ≥ 100% activation)”. The IC50 in assay [2] (setting [3]) was above 1000 nM.

Consider `CO[C@@H]1C[C@H]1Nc1nc(-c2nccn2C)nn2cc(-c3ccncc3)c(-c3ccccc3)c12` (racemic) [Compound 197, rac N-((1R,2R)-2-methoxycyclopropyl)-2-(1-methyl-1H-imidazol-2-yl)-5-phenyl-6-(pyridin-4-yl)pyrrolo[2,1-f][1,2,4]triazin-4-amine], for which the “% inh of MAPK p38 in Panc-1” value in assay [1] was “F (F = 31-74% inhibition)”. Moreover, in assay [2] (setting [3]), the IC50 is above 1000 nM.

For `COc1ccnc(Nc2nc(-c3nccn3CCN)nn3cc(-c4ccn(C)n4)c(C)c23)c1` [Compound 188, 2-(1-(2-Aminoethyl)-1H-imidazol-2-yl)-N-(4-methoxypyridin-2-yl)-5-methyl-6-(1-methyl-1H-pyrazol-3-yl)pyrrolo[2,1-f][1,2,4]triazin-4-amine], the “% inh of MAPK p38 in Panc-1” value in assay [1] is “E (E = 1-30% inhibition)”. In addition, the IC50 in assay [2] (setting [3]) was above 1000 nM.

In the case of `COc1ccnc(Nc2nc(-c3nccn3C)nn3cc(-c4c(F)cccc4OC)c(-c4ccccc4)c23)c1` [Compound 217, 6-(2-Fluoro-6-methoxyphenyl)-N-(4-methoxypyridin-2-yl)-2-(1-methyl-1H-imidazol-2-yl)-5-phenylpyrrolo[2,1-f][1,2,4]triazin-4-amine], in assay [1], the “% inh of MAPK p38 in Panc-1” value is on record as “F (F = 31-74% inhibition)”. For the same molecule, in assay [2] (setting [3]), the IC50 was below 150 nM.

As to `Cc1c(-c2ccn(C)n2)cn2nc(-c3nccn3C)nc(Nc3cc4c(cn3)CCO4)c12` [Compound 221, N-(5-Methyl-2-(1-methyl-1H-imidazol-2-yl)-6-(1-methyl-1H-pyrazol-3-yl)pyrrolo[2,1-f][1,2,4]triazin-4-yl)-2,3-dihydrofuro[3,2-c]pyridin-6-amine], the “% inh of MAPK p38 in Panc-1” value in assay [1] was “E (E = 1-30% inhibition)”. In addition, the IC50 in assay [2] (Proliferation assay, MiaPaca-2, read-out: MiaPaca-2 IC50 (nM) Pancreatic) is 1 to 10 nM; in assay [2] (setting [3]), below 150 nM.

For `CO[C@H]1C[C@H](Nc2nc(-c3nccn3C)nn3cc(-c4ccc(CCN)cc4)c(-c4ccccc4)c23)C1.Cl` [Compound 207, 6-(4-(2-Aminoethyl)phenyl)-N-((1r,3r)-3-methoxycyclobutyl)-2-(1-methyl-1H-imidazol-2-yl)-5-phenylpyrrolo[2,1-f][1,2,4]triazin-4-amine hydrochloride salt], the “% inh of MAPK p38 in Panc-1” value in assay [1] is given as “H (H = 100% inhibition)”. In addition, the IC50 in assay [2] (setting [3]) is above 1000 nM.

For the molecule `CO[C@H]1CC[C@H](Nc2nc(-c3nccn3C)nn3cc(-c4cccnc4)c(-c4ccccc4)c23)C1` (racemic) [Compound 194, rac N-((1S,3S)-3-Methoxycyclopentyl)-2-(1-methyl-1H-imidazol-2-yl)-5-phenyl-6-(pyridin-3-yl)pyrrolo[2,1-f][1,2,4]triazin-4-amine], the “% inh of MAPK p38 in Panc-1” value in assay [1] is “E (E = 1-30% inhibition)”. For the same molecule, the IC50 in assay [2] (setting [3]) is above 1000 nM.

Turning to `CO[C@H]1CC[C@H](Nc2nc(-c3nccn3C)nn3cc(-c4ccncc4)c(-c4ccccc4)c23)C1` (racemic) [Compound 201, rac N-((1S,3S)-3-Methoxycyclopentyl)-2-(1-methyl-1H-imidazol-2-yl)-5-phenyl-6-(pyridin-4-yl)pyrrolo[2,1-f][1,2,4]triazin-4-amine], the “% inh of MAPK p38 in Panc-1” value in assay [1] is “E (E = 1-30% inhibition)”. In assay [2] (setting [3]), the IC50 is above 1000 nM.

As to `CO[C@H]1C[C@H](Nc2nc(-c3nccn3C)nn3cc(-c4cccc(OCCN)c4)c(-c4ccccc4)c23)C1` [Compound 205, 6-(3-(2-Aminoethoxy)phenyl)-N-((1r,3r)-3-methoxycyclobutyl)-2-(1-methyl-1H-imidazol-2-yl)-5-phenylpyrrolo[2,1-f][1,2,4]triazin-4-amine], the “% inh of MAPK p38 in Panc-1” value in assay [1] was “G (G = 75-99% inhibition)”. In addition, the IC50 in assay [2] (setting [3]) was above 1000 nM.

With `Cn1ccnc1-c1nc(NS(C)(=O)=O)c2c(-c3ccccc3)c(-c3ccccc3)cn2n1` [Compound 212, N-(2-(1-Methyl-1H-imidazol-2-yl)-5,6-diphenylpyrrolo[2,1-f][1,2,4]triazin-4-yl) methanesulfonamide], the “% inh of MAPK p38 in Panc-1” value in assay [1] is on record as “F (F = 31-74% inhibition)”. Moreover, the IC50 in assay [2] (setting [3]) was above 1000 nM.

As for `CO[C@H]1C[C@H](Nc2nc(-c3nccn3C)nn3cc(-c4cnccc4C)c(-c4ccccc4)c23)C1` [Compound 218, N-((1r,3r)-3-Methoxycyclobutyl)-2-(1-methyl-1H-imidazol-2-yl)-6-(4-methylpyridin-3-yl)-5-phenylpyrrolo[2,1-f][1,2,4]triazin-4-amine], the “% inh of MAPK p38 in Panc-1” value in assay [1] is “F* (F* = 31-74% activation)”. The IC50 in assay [2] (setting [3]) was above 1000 nM.

As to `COc1cccc(Nc2nc(-c3ccccn3)nn3cc(-c4ccn(C(C)C)n4)c(C)c23)n1` [Compound 14, 6-(1-Isopropyl-1H-pyrazol-3-yl)-N-(6-methoxypyridin-2-yl)-5-methyl-2-(pyridin-2-yl)pyrrolo[2,1-f][1,2,4]triazin-4-amine], the “% inh of MAPK p38 in Panc-1” value in assay [1] was “H* (H* ≥ 100% activation)”. In addition, the IC50 in assay [2] (setting [3]) is above 1000 nM.

Turning to `CO[C@H]1C[C@H](Nc2nc(-c3nccn3C)nn3cc(-c4cccc5c4CCO5)c(-c4ccccc4)c23)C1` [Compound 210, 6-(2,3-Dihydrobenzofuran-4-yl)-N-((1r,3r)-3-methoxycyclobutyl)-2-(1-methyl-1H-imidazol-2-yl)-5-phenylpyrrolo[2,1-f][1,2,4]triazin-4-amine], the “% inh of MAPK p38 in Panc-1” value in assay [1] is recorded as “G (G = 75-99% inhibition)”. For the same molecule, in assay [2] (setting [3]), the IC50 lay in the range of 510 to 1000 nM.

With `COc1ccnc(Nc2nc(-c3nccn3C)nn3cc(-c4ccn(C)n4)c(C(=O)N4CCCC4)c23)c1` [Compound 178, (4-((4-Methoxypyridin-2-yl)amino)-2-(1-methyl-1H-imidazol-2-yl)-6-(1-methyl-1H-pyrazol-3-yl)pyrrolo[2,1-f][1,2,4]triazin-5-yl)(pyrrolidin-1-yl)methanone], the IC50 in assay [2] (setting [3]) is above 1000 nM.

With `COc1ccnc(Nc2nc(-c3nccn3C)nn3cc(-c4ccn(C)n4)c(C(=O)NC4CC4)c23)c1` [Compound 175, N-Cyclopropyl-4-((4-methoxypyridin-2-yl)amino)-2-(1-methyl-1H-imidazol-2-yl)-6-(1-methyl-1H-pyrazol-3-yl)pyrrolo[2,1-f][1,2,4]triazine-5-carboxamide], the IC50 in assay [2] (setting [3]) was 150 to 500 nM.

`Cc1c(-c2ccn(C)n2)cn2nc(-c3nccn3C)nc(Nc3ccc(-n4ccnc4C)cn3)c12` [Compound 243, 5-Methyl-N-(5-(2-methyl-1H-imidazol-1-yl)pyridin-2-yl)-2-(1-methyl-1H-imidazol-2-yl)-6-(1-methyl-1H-pyrazol-3-yl)pyrrolo[2,1-f][1,2,4]triazin-4-amine]: the IC50 in assay [2] (setting [3]) is below 150 nM.

Regarding `COc1cc(Nc2nc(-c3nccn3C)nn3cc(-c4cccnc4)c(-c4cccnc4)c23)ncn1` [Compound 170, N-(6-Methoxypyrimidin-4-yl)-2-(1-methyl-1H-imidazol-2-yl)-5,6-di(pyridin-3-yl)pyrrolo[2,1-f][1,2,4]triazin-4-amine], the IC50 in assay [2] (setting [3]) was below 150 nM.

For the molecule `CO[C@H]1C[C@H](Nc2nc(-c3nccn3C)nn3cc(-c4cccnc4)c(-c4cccnc4)c23)C1` [Compound 171, N-((1r,3r)-3-Methoxycyclobutyl)-2-(1-methyl-1H-imidazol-2-yl)-5,6-di(pyridin-3-yl)pyrrolo[2,1-f][1,2,4]triazin-4-amine], the IC50 in assay [2] (setting [3]) is above 1000 nM.

On to `Cc1c(-c2ccn(C)n2)cn2nc(-c3nccn3C)nc(Nc3ccc(OCC(F)(F)F)cn3)c12` [Compound 230, 5-Methyl-2-(1-methyl-1H-imidazol-2-yl)-6-(1-methyl-1H-pyrazol-3-yl)-N-(5-(2,2,2-trifluoroethoxy)pyridin-2-yl)pyrrolo[2,1-f][1,2,4]triazin-4-amine], for which the IC50 in assay [2] (setting [3]) is below 150 nM.

Source of the values: patent US12459951B2, “Compounds that interact with RAS superfamily proteins for treatment of cancers, inflammatory diseases, rasopathies, and fibrotic disease” (SHY Therapeutics, LLC, priority 2022, dated 2025).
